Measurements reported in patent US7517857B2, “Immune-modulating peptide” (POSCO, priority 2002, dated 2009).
Each block holds one molecule with its values, some of them ahead of it. Where a SMILES comes first, the peptide text is derived from it. [ ]: non-standard residue; d: D form.

How the values were obtained:
Assay type in all cases: cell-based
[1] = molecular target: T1, FPR (Homo sapiens, UniProt P21462); test: ERK phosphorylation in FPR-expressing RBL-2H3 cells (immunoblot); details: pretreatment prior to 1 μM WKYMVm, PTX 100 ng/ml, LY294002 50 μM, GFX 5 μM, BAPTA/AM 10 μM, PD98059 50 μM
T1 construct: expressed in transfected cells; host or cells: RBL-2H3 (rat basophilic leukemia) cells, G418-selected
T1 sequence (P21462 1-350): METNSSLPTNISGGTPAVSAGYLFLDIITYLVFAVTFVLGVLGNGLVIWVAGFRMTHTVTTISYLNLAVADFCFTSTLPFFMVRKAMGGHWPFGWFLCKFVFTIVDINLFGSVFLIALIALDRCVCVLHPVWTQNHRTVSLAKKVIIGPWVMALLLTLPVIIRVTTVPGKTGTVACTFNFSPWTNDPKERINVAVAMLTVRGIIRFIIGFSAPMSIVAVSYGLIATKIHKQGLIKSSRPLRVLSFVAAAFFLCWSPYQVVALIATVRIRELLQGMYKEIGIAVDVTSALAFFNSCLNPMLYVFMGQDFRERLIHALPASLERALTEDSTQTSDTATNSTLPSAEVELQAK
Experimental: (§1) Cultured RBL-2H3 cells were aliquoted into 2×10^6 cells and stimulated with the indicated concentrations of WKYMVm and the peptides of the present invention for the indicated lengths of time. FPR- or FPRL1-expressing RBL-2H3 cells were stimulated with 1 μM WKYMVm for various periods of time (FIG. 3A). Two cells were preincubated with a vehicle or 100 ng/ml of PTX (24 hr), 50 μM of LY294002 (15 min), 5 μM of GFX (15 min), 10 μM BAPTA/AM (60 min), or 50 μM PD98059 (60 min) prior to 1 μM of WKYMVm treatment (FIG. 3B). FPR- or FPRL1-expressing RBL2H3 cells were stimulated with 10 μM of the peptides of the present invention for 2 min or 5 min, respectively (FIG. 3C).
(§2) After stimulation, the cells were washed with serum-free RPMI and lysed in a lysis buffer (20 mM Hepes, pH 7.2, 10% glycerol, 150 mM NaCl, 1% Triton X-100, 50 mM NaF, 1 mM Na3VO4, 10 μg/ml leupeptin, 10 μg/ml aprotinin, and 1 mM phenylmethylsulfonyl fluoride). The detergent-insoluble materials were pelleted by centrifugation (12,000×g, 15 min, at 4° C.), and the soluble supernatant fraction was removed and stored at −80° C. or used immediately. Protein concentrations in the lysates were determined using the Bradford protein assay reagent.
(§3) Each sample ([…] of protein) was subjected to 10% SDS-PAGE and phosphorylated ERK was determined by an immunoblot analysis with an anti-phospho-ERK antibody. Protein samples were prepared for electrophoresis by addition of a concentrated sample buffer. The portions in the samples were then separated by an 10% SDS-polyacrylamide gel using the buffer system described by Laemmli (17).
(§4) Following the electrophoresis, a western blot analysis with an anti-ERK2 antibody was performed to confirm that the same amounts of samples were used for the experiments. The proteins were blotted onto nitrocellulose membranes. The nitrocellulose membranes were then blocked by incubation with TBS (Tris-buffered saline, 0.05% Tween-20) containing 5% non-fat dry milk. Subsequently, the membranes were incubated with anti-phospho-ERK antibody, anti-phospho-Akt antibody or anti-Akt antibody washed with TBS. For a PKC translocation assay, an antibody for PKC isozyme-specific was incubated. Antigen-antibody complexes were visualized after incubating the membrane with a 1:5000 diluted goat anti-rabbit IgG or goat anti-mouse IgG antibody coupled to horseradish peroxidase and using the enhanced chemiluminescence detection system.

[2] = molecular target: T2, FPRL1 (Homo sapiens, UniProt P25090); test: Chemotaxis of FPRL1-expressing RBL-2H3 cells (modified Boyden chamber); details: FPRL1 cells; 50 μM LY294002 (15 min), 50 μM PD98059 (60 min); 1 μM WKYMVm
T2 construct: expressed in transfected cells; host or cells: RBL-2H3 (rat basophilic leukemia) cells, G418-selected
T2 sequence (P25090 1-351): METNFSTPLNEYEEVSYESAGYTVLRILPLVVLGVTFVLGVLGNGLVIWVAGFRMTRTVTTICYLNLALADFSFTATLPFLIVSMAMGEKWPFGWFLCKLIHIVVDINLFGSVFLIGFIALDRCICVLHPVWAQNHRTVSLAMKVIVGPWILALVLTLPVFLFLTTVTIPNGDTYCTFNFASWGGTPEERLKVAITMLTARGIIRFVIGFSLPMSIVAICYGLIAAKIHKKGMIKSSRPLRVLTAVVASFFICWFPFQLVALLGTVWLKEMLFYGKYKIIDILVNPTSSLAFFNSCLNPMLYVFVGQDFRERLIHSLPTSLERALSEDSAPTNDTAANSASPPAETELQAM
Experimental: (§5) Chemotaxis assays were performed using multiwell chambers (modified Boyden chamber assay) (Neuroprobe Inc., Gaithersburg, Md.) (18). Briefly, polycarbonate filters (8 μm pore size) were precoated with 50 μg/ml of rat type I collagen (Collaborative Biomedicals) in a HEPES-buffered RPMI 1640 medium. A dry coated filter was placed on a 96-well chamber containing different concentrations of peptides. RBL-2H3 cells expressing FPR or FPRL1 were suspended in RPMI at a concentration of 1×10^6 cells/ml of serum-free RPMI, and 25 μl of the suspension were placed onto the upper well of the 96-well chemotaxis chamber. After incubation for 4 hours at 37° C., non-migrated cells were removed by scraping them out, and cells that migrated across the filter were dehydrated, fixed, and stained with hematoxylin (Sigma, St. Louis, Mo.). The stained cells in five randomly chosen high power fields (HPF) (400×) in that well were then counted. […] The numbers of migrated cells were determined by counting them in a high power field (400×). The Data are presented as means ±SE of three independent experiments each performed in duplicate. The effect of the peptides of the present invention on cellular chemotaxis in FPR- or FPRL1-expressing RBL-2H3 cells was measured. Various concentrations of each peptide were used for the chemotaxis assay with FPR- or FPRL1-expressing RBL-2H3 cells. The numbers of migrated cells were determined by counting them in a high power field (400×). The Data are presented as means ±SE of two independent experiments each performed in duplicates.

[3] = molecular target: T2, FPRL1; test: ERK phosphorylation in FPRL1-expressing RBL-2H3 cells (immunoblot); details: pretreatment prior to 1 μM WKYMVm, PTX 100 ng/ml, LY294002 50 μM, GFX 5 μM, BAPTA/AM 10 μM, PD98059 50 μM
Experimental: as §1, §2, §3, §4

[4] = molecular target: T1, FPR; test: Chemotaxis of FPR-expressing RBL-2H3 cells (modified Boyden chamber); details: FPR cells; 50 μM LY294002 (15 min), 50 μM PD98059 (60 min); 1 μM WKYMVm
Experimental: as §5

[5] = molecular target: T2, FPRL1; test: Exocytosis: β-hexosaminidase secretion in FPRL1-expressing RBL-2H3 cells; details: FPRL1 cells; 10 μM of each peptide (WKYMVm also various concentrations)
Experimental: Granule secretion is one of the most important function of mast cells (20). The effect of WKYMVm on granule secretion was checked by measuring β-hexosaminidase secretion as described above (18). Briefly, RBL-2H3 cells (2×10^5/well) expressing FPR or FPRL1 were cultured overnight in a 24-well tissue culture plate. The cells were washed twice with Tyrode's buffer (137 mM NaCl, 12 mM NaHCO3, 5.6 mM glucose, 2.7 mM KCl, 1 mM CaCl2, 0.5 mM MgCl2, 0.4 mM NaH2PO4, 0.1g/100 ml BSA, and 25 mM HEPES, pH 7.4) and stimulated with each peptide. Various concentrations of WKYMVm were treated in FPR- or FPRL1-expressing RBL-2H3 cells (FIG. 5A). 1 μM of WKYMVm was used to stimulate two cell lines in the absence or presence of 10 μM BAPTA/AM (FIG. 5B). The reaction was terminated 20 min after stimulation by placing the plate on ice. Secretion of β-hexosaminidase into the medium was determined by incubating 50 μl of supernatant or cell lysate with 25 μl of 5 mM p-nitrophenyl-N-acetyl-β-D-glucosamide in 0.1 M sodium citrate buffer (pH 3.8) at 37° C. for 2 hr. At the end of the incubation, 50 μl of 0.4 M Na2CO3 were added. Absorbance was monitored at 405 nm. Data are means ±S.E. of a single representative of three experiments performed in triplicate. Values (means ±S.E.) were expressed as a percent of total β-hexosaminidase present in the cells.
10 μM of each peptide was treated in FPR- (FIG. 6A) or FPRL1-expressing RBL-2H3 cells (FIG. 6B). The peptide-induced secretion of β-hexosaminidase was determined as above. Data are means ±S.E. of a single representative of three experiments performed in triplicate.

[6] = tested on: human neutrophils; test: Superoxide generation in human neutrophils (cytochrome c reduction); details: for O^2− (nmol/10^6 cells), superoxide generation: cytochrome c reduction
Experimental: Peripheral blood leukocyte concentrates were donated by the Ulsan Red Cross Blood Center (Ulsan, Korea). Human neutrophils were isolated according to the standard procedures of dextran sedimentation, hypotonic lysis of erythrocytes, and a lymphocyte separation medium gradient as described above (9). The isolated human neutrophils were then used promptly.
The activity of the peptides, WKYMVm, peptides of SEQ ID NOs: 1 to 24, and wkymvm on superoxide generation in human neutrophils was measured. Superoxide anion generation was quantified by measuring reduction of cytochrome c using a microtiter 96-well plate ELISA reader (Bio-Tekinstruments, EL312e, Winooski, Vt.) as described (14). The human neutrophils (1×10^6 cells/100 μl of RPMI 1640 medium per well of a 96-well plate) were preincubated with 50 μM cytochrome c at 37° C. for 1 min and then incubated with the indicated concentrations of peptides. The superoxide generation was measured as a change in light absorption at 550 nm over 5 minutes at 1 min intervals. From at least four independent experiments, peptides with active amino acids at each position were chosen.

[7] = molecular target: T1, FPR; test: [Ca2+]i increase in FPR-expressing RBL-2H3 cells (fura-2)
[8] = molecular target: T2, FPRL1; test: [Ca2+]i increase in FPRL1-expressing RBL-2H3 cells (fura-2)
Experimental: […] The level of [Ca^2+]i was determined fluorometrically by Grynkiewicz's method using fura-2/AM (15). Briefly, prepared cells were incubated with 3 μM fura-2/AM at 37° C. for 50 min in a fresh serum-free RPMI 1640 medium under continuous stirring. 2×10^6 cells were aliquoted for each assay in Ca^2+-free Locke's solution (154 mM NaCl, 5.6 mM KCl, 1.2 mM MgCl2, 5 mM HEPES, pH 7.3, 10 mM glucose, and 0.2 mM EGTA). Fluorescence changes at the dual excitation wavelengths of 340 nm and 380 nm and the emission wavelength of 500 nm were measured, and the calibrated fluorescence ratio was translated into [Ca^2+]i. The peak level of the increased [Ca^2+]i was monitored.
[…] The level of [Ca^2+]i was determined by the same procedures as above. The peak level of the increased [Ca^2+]i was monitored.

effect of inhibitor pretreatment on WKYMVm-induced ERKs activation [1]: sensitive | effect of inhibitor pretreatment on WKYMVm-induced cellular chemotaxis [2]: sensitive | effect of inhibitor pretreatment on WKYMVm-induced ERKs activation [3]: sensitive | effect of inhibitor pretreatment on WKYMVm-induced cellular chemotaxis [4]: sensitive
Compound: COc1cccc(-c2cc(=O)c3ccccc3o2)c1N [PD98059, reference compound]

Compound: CN(C)CCCn1cc(C2=C(c3c[nH]c4ccccc34)C(=O)NC2=O)c2ccccc21 [GF109203X]
effect of inhibitor pretreatment on WKYMVm-induced ERKs activation [1]: could not effect WKYMVm-induced ERK activation | effect of inhibitor pretreatment on WKYMVm-induced ERKs activation [3]: could not effect WKYMVm-induced ERK activation

Compound: Cn1cc(C2=C(c3cn(CCCSC(=N)N)c4ccccc34)C(=O)NC2=O)c2ccccc21 [Ro-31-8220]
effect of inhibitor pretreatment on WKYMVm-induced ERKs activation [1]: could not effect WKYMVm-induced ERK activation | effect of inhibitor pretreatment on WKYMVm-induced ERKs activation [3]: could not effect WKYMVm-induced ERK activation

Compound: CSCC[C@H](NC=O)C(=O)N[C@@H](CC(C)C)C(=O)N[C@@H](Cc1ccccc1)C(=O)O [fMLF, N-formyl-methionyl-leucyl-phenylalanine]
granule secretion / β-hexosaminidase release (words) [5]: but not fMLF or wkymvm, stimulated granule secretion

[Ca^2+]i increasing activity [8]: higher affinity to FPRL1
Compound: CSCC[C@H](NC(=O)[C@H](Cc1ccccc1)NC(=O)[C@H](CCCCN)NC(=O)[C@@H](N)Cc1c[nH]c2ccccc12)C(=O)N[C@H](C(=O)N[C@H](CCSC)C(N)=O)C(C)C [WKFMVm-NH2, Trp-Lys-Phe-Met-Val-D-Met-NH2] (H-WKFMV[dM]-NH2; N-terminus assumed)
superoxide generating activity ([6]; 100 nM of peptides): stimulated superoxide generation | superoxide generation ([6]; 10 μM concentration): more potent activity than WKYMVm | O^2− (nmol/10^6 cells), superoxide generation ([6]; peptide 100 nM): 37.3 ± 3.56 nmol/10^6 cells | O^2− (nmol/10^6 cells), superoxide generation ([6]; peptide 10 μM): 60.2 ± 5.57 nmol/10^6 cells | [Ca^2+]i increasing activity [7]: more improved affinity for the FPR against the peptide WKYMVm
